Data set [1] has as its system human engineered cardiac tissue. The data set is described as follows: Validation of engineered cardiac tissue with drugs of known cardiac effects: beat frequency. Type of data set: cell-based. From the text: Levels were normalized first to β actin and subsequently to the tissue engineered bone control (mean ± s.d., n = 3). […] All scale bars: 100 µm.
The cardiac tissue model was generated from iPS-derived cardiomyocytes and fibroblasts encapsulated in fibrin hydrogel, as in our previous studies. The tissue was formed between two elastic pillars causing cell elongation and alignment, and subjected to electrical stimulation to synchronously contract and work against the pillars.
Specifically, linsitinib was dissolved at a 10 mM concentration in DMSO (Corning) and mixed in with the respective cell medium at a […] concentration unless otherwise noted. Vehicle treatments involved just the addition of DMSO at identical volumes as a control. Tissues were randomly assigned to experimental groups. Medium was changed every day.
To measure the cardiac contractility online, we took contractility videos of the tissues that were analyzed using the native MATLAB code we previously developed. Tissue contractility was measured by tracking the change in tissue area as a function of time. Acquired video frames were inverted and an automated intensity threshold was used to identify cell location in the video frame. First, a baseline time point in the video corresponding to a relaxed tissue state was selected. Absolute differences in cell area from the baseline frame were then calculated to create a time course of cell area changes over time. The resulting time courses were analyzed using a native MATLAB (MATHWorks) automated peak finding algorithm to determine locations of maximum cell contractions in the time profiles. Beat period lengths were determined from the length of time between the pairs of local maxima, and the beat frequencies were determined by inverting beat periods. The rate of proarrhythmic events was calculated by the ratio of the number of proarrhythmic events over the total number of beats.

In data set [2] the test system is cardiac muscle. The data set is described as follows: Drug distribution with functional matching in InterOrgan platform: cardiac beat frequency. Type of data set: cell-based, human. The settings on record: 10 µM introduced into the reservoir at t = 0; assessed at 24 and 72 hours.
The subject of data set [3] is all tissues in the InterOrgan platform. In words: Doxorubicin-induced toxicity in InterOrgan platform: viability and metabolism of all tissues. Type of data set: cell-based, human. The conditions noted are these: 30 µM Dox, 72 hours after exposure. As to the method:
After the acute dose, each engineered tissue was assessed for cell viability, glucose consumption, and mitochondrial activity 72 hours after exposure (FIGS. 13D-F). Functional features for each engineered tissue 72 hours after acute exposure (n=3-5) are shown in FIGS. 13G-J. Over a thousand miRNAs from control and Dox-exposed cardiac tissues were differentially expressed under Isolated and InterOrgan conditions (FIG. 13K).
Treatment with 30 µM Dox, corresponding to the clinically administered cumulative dosage shown to induce cardiotoxicty, was delivered to tissues in the InterOrgan platform through the vascular channel and compared against the Isolated condition (FIG. 13A). […] We also detected decreased cardiac contractility and increased troponin release, both clinical measures of cardiac cell damage (FIG. 13G).
Metabolic Assays: Glucose, lactate, glutamate and glutamine were measured in parallel using the bioluminescent Glucose-Glo™ (Promega, cat. no. J6021), Lactate-Glo™ (Promega, cat. No. J5021), Glutamine/Glutamate-Glo™ (Promega, cat. no. J8021) and Glutamate-Glo™ (Promega, cat. no. J7021) assays according to the manufacturer’s protocols.

The subject of data set [4] is engineered cardiac tissues. The data set is described as follows: Doxorubicin-induced toxicity: heart function assays. Type of data set: cell-based, human. The conditions noted are these: 30 µM Dox, 72 hours. As to the method:
Heart function assays: Cardiac excitability, force, and beat rate were obtained using our previously established protocols. Cardiac troponin secretion was determined using the Human Cardiac Troponin I ELISA Kit (Abcam, ab200016) according to the manufacturer’s instructions.

In data set [5] the test system is Liver tissues. In words: Doxorubicin-induced toxicity: liver function assays. Type of data set: cell-based, human. The conditions noted are these: 30 µM Dox, 72 hours. As to the method: Liver function assays: To assess liver function, […] and urea secretion using a Human ELISA kit (Bethyl, E88-129) and a Urea Nitrogen Test Kit (Fisher Scientific, SB-0580-250), respectively. Comparing these samples to the provided standard, concentrations of albumin and urea were calculated and compared to the secretion for each tissue at Day 0. Assays were performed according to the manufacturer’s instructions.

Data set [6] deals with Bone tissues. In words: Doxorubicin-induced toxicity: bone function assays. The conditions noted are these: 30 µM Dox, 72 hours. Type of data set: cell-based, human. On the procedure:
Bone function assays: To assess the bone’s ability to remodel its matrix, supernatant samples were analyzed for […], (TRAP, Kamiya Biomedical Company, KT-008) and bone sialoprotein (Human Bone Sialoprotein ELISA Kit, Mybiosource, cat. no. MBS261861) after 28 days of culture. These assays were performed according to the manufacturer’s instructions.

Data set [7] has as its system skin tissues. In words: Doxorubicin-induced toxicity: skin functional assays. Type of data set: cell-based, human. The conditions noted are these: 30 µM Dox, 72 hours; both Isolated and InterOrgan cultures. On the procedure: Skin functional assays: For drug-induced toxicity studies, electrical current was run through the tissues by placing electrodes on either side of the skin tissue and the change in resistance was subsequently measured and read as a function of the barrier. All tissues were analyzed using the same electrode holder setup to standardize the positions of electrodes with respect to the tissue. To analyze the transport of molecules through the skin barrier, Fluorescein (FITC, ThermoFisher, D3306) powder was added to the epidermis of skin tissues. After 3 hrs, 100 µl of supernatant from the dermal region below the skin tissue was sampled and assayed on a plate reader (BioTex Synergy HTX).

Data set [8] can be described thus: FITC circulation in the platform (absorption and diffusive transport). Type of data set: physicochemical. As to the method: We also circulated fluorescent FITC, which has similar chemical properties as linsitinib including hydrophobicity and molecular weight, and measured its distribution across the 2 tissue chambers in the platform (FIG. 26F). The simulated and empirical results agreed: FITC also reached uniform concentration in all areas of the platform in within 12 hours, after reaching equilibrium across both models at approximately 6 hours. This is significant, since linsitinib is known to have a short half-life of approximately 5 hours. The delayed drug distribution by diffusion through tissues observed here has been documented as an issue for treating solid tumors in patients, with chemotherapeutic concentrations decreasing exponentially with distance from tumor blood vessels and often being limited to the peripheries of tumors even 12 hours after injection.
Fluorescein isothiocyanate (FITC, 10 mM in DMSO; Sigma Aldrich) was circulated for the integrated platform to determine potential hydrophobic small molecule absorption, given its physical and chemical properties. FITC was added at a concentration of 10 µM to 8 mL of 1:1 bone tumor/cardiac mixed media and introduced into the platform. The control was the FITC-containing media in a standard 24-multiwell plate (Corning). Aliquots from the reservoir, bone tumor, and cardiac tissue chambers were taken at 12, 24, 48 and 72 hours and measured for fluorescent signal using a spectrophotometer (Biotek).
Measurements of FITC concentrations were used to estimate the spread of linsitinib within the platform via diffusive circulating transport. Four independent platforms were filled with 8 mL of 1:1 mixed media each, after which 10 µM of FITC was injected into the reservoir. The platforms were connected to the peristaltic pumps run at 100 rpm to generate physiologically relevant fluid flow rate and shear stress. Aliquots were taken from the reservoir, bone and cardiac chambers at 0, 2, 4, 6, and 12 hours post injection, and assayed for fluorescence signal on a spectrophotometer (Biotek).

Data set [9] deals with endothelial barrier. In words: Endothelial barrier permeability response to thrombin. Type of data set: cell-based, human. The settings on record: endothelialized mesh inserts under flow shear. From the text: Vascularization The generation of a patient-specific vascular barrier is critical for functionally connecting tissue compartments while maintaining each tissues, as well as vascular perfusion, under optimal culture conditions resulting in phenotypic stability and maturation, analogous to the separation of interstitial and intravascular compartments in vivo. Transwell mesh inserts in each tissue chamber were coated with fibronectin and seeded with ECs and supporting MSCs with 2:1 ratio (FIG. 36). A stable endothelial barrier was then established by exposure to flow shear (ramped up from 1 to 5 dyn/cm^2 over 5 days of culture). To physiologically integrate engineered tumors and host tissues by vascular flow, the endothelialized membrane needs to separate the interstitial and intravascular spaces, enabling vasculature-mediated tissues crosstalk. […] Such response to an inflammatory agent is critical for metastatic extravasation of cancer cells. The endothelial barrier allowed optimization of culture conditions for each tissue - akin to compartmentalization in the body that avoids the use of “common” media. This approach promoted long term culture (4-12 weeks) of matured tissues, with on-line readouts (cell tracking, viability, function) in longitudinal and dynamic studies. […]

[10] abbreviates: isoproterenol dose-response study.
[11] abbreviates: 10 µM injected into the reservoir.

Counter-ions that a name gives are not always drawn.

As for `CCCCc1oc2ccccc2c1C(=O)c1cc(I)c(OCCN(CC)CC)c(I)c1` [Amiodarone, amiodarone hydrochloride], the beat frequency result in data set [1] (amiodarone 2.418 µM over 48 hours) is “expected decreases in the beat frequency”.

`Cn1c(=O)c2c(ncn2C)n(C)c1=O` [caffeine]: the beat frequency entry in data set [1] (caffeine 50 mM) is given as “physiologic increases in beat frequency”.

Turning to `CN(CCOc1ccc(NS(C)(=O)=O)cc1)CCc1ccc(NS(C)(=O)=O)cc1` [dofetilide], the “beat rate of cardiac muscle” value in data set [2] is “decreased”.

As for `COc1cccc2c1C(=O)c1c(O)c3c(c(O)c1C2=O)C[C@@](O)(C(=O)CO)C[C@@H]3O[C@H]1C[C@H](N)[C@H](O)[C@H](C)O1` [doxorubicin], in data set [3], the Cell viability result is reported as “significantly decreased”, the glucose consumption result is on record as “significantly decreased” and the mitochondrial activity result was “significantly decreased”. For the same molecule, in [4], the cardiac contractility result was “decreased” and the troponin release entry was “increased”. Also, in data set [5], the albumin entry was “decreased” and the urea production entry is on record as “unaffected”. For the same molecule, in data set [6], the TRAP responses result is on record as “stable” and the cellularity result is “decreased”. In data set [7], the diffusional permeability entry was “increased” and the electrical resistance result is given as “decreased”. Further, in data set [1] (doxorubicin 1 µM over 72 hours), the beat frequency entry is “initially increased, and then decreased following prolonged exposure to the drug”.

For `CNC[C@H](O)c1ccc(O)c(O)c1` [epinephrine], the “beat rate of cardiac muscle” value in data set [2] is “increased”.

Regarding `CC(C)NCC(O)c1ccc(O)c(O)c1` (stereo not shown) [isoproterenol, isoproterenol hydrochloride], in data set [1] (setting [10]), the “EC50 (beat frequency)” value is “expected values of EC50” and the beat frequency entry is on record as “increased”.

Regarding Fluorescein isothiocyanate [FITC], in [8] (10 µM circulated for 72 hours, polysulfone platform compared to multi-well plates), the “absorption by the platform” value is “without any measurable absorption by the platform”. Moreover, in data set [8] (setting [11]), the “time to equilibrium across both models” value is listed as “approximately 6 hours” and the “time to uniform concentration in all areas of the platform” value was at most 12 h.

Turning to thrombin, the barrier permeability result in data set [9] is “physiologic increase in barrier permeability”.

The values are drawn from patent US20230287316A1, “INTER-ORGAN PLATFORM WITH TISSUE-SPECIFIC NICHES FOR A MICROPHYSIOLOGICAL SYSTEM ON A CHIP” (THE TRUSTEES OF COLUMBIA UNIVERSITY IN THE CITY OF NEW YORK, priority 2020, published 2023).
